Measurements published in patent US20130096104A1, “IMIDAZOPYRIDINE COMPOUNDS, COMPOSITIONS AND METHODS OF USE” (GENENTECH, INC., priority 2010, published 2013).
pKi: −log10 of the molar value.

molecular target: T1, TYK2 kinase domain (Homo sapiens, UniProt P29597); test: TYK2 inhibition assay (Example A, Caliper LabChip peptide phosphorylation); format: biochemical; details: isolated kinase domain, 1 nM TYK2, 25 uM ATP, Morrison tight binding model
T1 construct: The activity of the isolated JAK1, JAK2 or TYK2 kinase domain was measured
T1 sequence (P29597 897-1176 limits assumed): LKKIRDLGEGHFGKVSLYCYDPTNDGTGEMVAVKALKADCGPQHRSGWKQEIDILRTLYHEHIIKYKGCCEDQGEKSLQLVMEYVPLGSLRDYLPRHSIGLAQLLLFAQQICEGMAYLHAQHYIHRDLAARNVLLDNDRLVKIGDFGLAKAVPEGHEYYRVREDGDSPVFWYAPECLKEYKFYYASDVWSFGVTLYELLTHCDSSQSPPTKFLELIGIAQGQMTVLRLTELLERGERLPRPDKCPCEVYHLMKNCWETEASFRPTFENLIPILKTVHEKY
Description: The activity of the isolated JAK1, JAK2 or TYK2 kinase domain was measured by monitoring phosphorylation of a peptide derived from JAK3 ([…] fluorescently labeled on the N-terminus with 5-carboxyfluorescein using the Caliper LabChip technology (Caliper Life Sciences, Hopkinton, Mass.). […] Reactions were incubated at 22° C. in 384-well polypropylene microtiter plates for 30 minutes and then stopped by addition of 25 uL of an EDTA containing solution (100 mM Hepes pH 7.2, 0.015% Brij-35, 150 mM EDTA), resulting in a final EDTA concentration of 50 mM. After termination of the kinase reaction, the proportion of phosphorylated product was determined as a fraction of total peptide substrate using the Caliper LabChip 3000 according to the manufacturer's specifications. Ki values were then determined using the Morrison tight binding model. Morrison, J. F., Biochim. Biophys. Acta. 185:269-296 (1969); William, J. W. and Morrison, J. F., Meth. Enzymol., 63:437-467 (1979).

SMILES | pKi
Clc1cccc(Cl)c1-c1nc2c(Nc3ccccn3)nccc2[nH]1 [Example 1, 2-(2,6-dichlorophenyl)-N-(pyridin-2-yl)-1H-imidazo[4,5-e]pyridin-4-amine] | 8.77
Clc1cccc(Cl)c1-c1nc2ccnc(Nc3cn[nH]c3)c2[nH]1 [Example 3, 2-(2,6-dichlorophenyl)-N-(1H-pyrazol-4-yl)-3H-imidazo[4,5-e]-pyridin-4-amine] | 7.84
Clc1cccc(Cl)c1-c1nc2ccnc(Nc3cc(N4CCOCC4)ncn3)c2[nH]1 [Example 5, 2-(2,6-dichlorophenyl)-N-(6-morpholinopyrimidin-4-yl)-3H-imidazo[4,5-e]pyridin-4-amine] | 9.22
Fc1cccc(Cl)c1-c1nc2ccnc(Nc3cnccn3)c2[nH]1 [Example 6, 2-(2-chloro-6-fluorophenyl)-N-(pyrazin-2-yl)-3H-imidazo[4,5-e]-pyridin-4-amine] | 8.51
O=C(Nc1nccc2nc(-c3c(Cl)cccc3Cl)[nH]c12)c1cncs1 [Example 7, N-(2-(2,6-dichlorophenyl)-3H-imidazo[4,5-c]pyridin-4-yl) thiazole-5-carboxamide] | 8.11
N#Cc1cc(Cl)c(-c2nc3ccnc(NC(=O)C4CC4)c3[nH]2)c(Cl)c1 [Example 10, N-(2-(2,6-dichloro-4-cyanophenyl)-3H-imidazo[4,5-c]pyridin-4-yl)cyclopropanecarboxamide] | 8.60
CNC(=O)Nc1nccc2nc(-c3c(Cl)cccc3Cl)[nH]c12 [Example 11, 1-(2-(2,6-dichlorophenyl)-3H-imidazo[4,5-e]pyridin-4-yl)-3-methylurea] | 8.31
Cn1c(-c2c(Cl)cccc2Cl)nc2c(NC(=O)C3CC3)nccc21 [Example 12, N-(2-(2,6-dichlorophenyl)-1-methyl-1H-imidazo[4,5-c]pyridine-4-yl)cyclopropanecarboxamide] | 7.88
Cn1c(-c2c(Cl)cccc2Cl)nc2ccnc(NC(=O)C3CC3)c21 [Example 13, N-(2-(2,6-dichlorophenyl)-3-methyl-3H-imidazo[4,5-c]pyridine-4-yl)cyclopropanecarboxamide] | 7.71
Clc1cccc(Cl)c1-c1nc2c(Nc3ccncn3)ncnc2[nH]1 [Example 14, 8-(2,6-dichlorophenyl)-N-(pyrimidin-4-yl)-9H-purin-6-amine] | 8.55
O=C(Nc1ncnc2nc(-c3c(Cl)cccc3Cl)[nH]c12)C1CC1 [Example 15, N-(8-(2,6-dichlorophenyl)-7H-purin-6-yl)cyclopropanecarboxamide] | 8.09
Cc1cc(Nc2ncc(F)c3[nH]c(-c4c(Cl)cccc4Cl)nc23)nc(C)n1 [Example 16, 2-(2,6-dichlorophenyl)-N-(2,6-dimethylpyrimidin-4-yl)-7-fluoro-1H-imidazo[4,5-c]pyridin-4-amine] | 8.64
Cc1nc(Nc2ncnc3nc(-c4c(Cl)cccc4Cl)[nH]c23)cc(N2CCN(CCO)CC2)n1 [Example 167, 2-(4-{6-[8-(2,6-Dichloro-phenyl)-7H-purin-6-ylamino]-2-methyl-pyrimidin-4-yl}-piperazin-1-yl)-ethanol] | 8.14
CNC(=O)Nc1ncnc2nc(-c3c(Cl)cccc3Cl)[nH]c12 [Example 171, 1-(8-(2,6-dichlorophenyl)-7H-purin-6-yl)-3-methylurea] | 7.57
Cc1ccc(Nc2ncnc3nc(-c4c(Cl)cccc4Cl)[nH]c23)nc1 [Example 179, 8-(2,6-dichlorophenyl)-N-(5-methylpyridin-2-yl)-7H-purin-6-amine] | 8.82
N#Cc1cc(Cl)c(-c2nc3ncnc(Nc4ccc(N5CCOCC5)cn4)c3[nH]2)c(Cl)c1 [Example 197, 3,5-dichloro-4-(6-(5-morpholinopyridin-2-ylamino)-7H-purin-8-yl)benzonitrile] | 8.85
COC(=O)Nc1ncnc2nc(-c3c(F)cccc3Cl)[nH]c12 [Example 208, methyl 8-(2-chloro-6-fluorophenyl)-7H-purin-6-ylcarbamate] | 7.25
O=C(Nc1ncnc2nc(-c3c(F)cccc3Cl)[nH]c12)C1CC1 [Example 210, N-(8-(2-chloro-6-fluorophenyl)-7H-purin-6-yl)cyclopropanecarboxamide] | 7.56
Cn1c(-c2c(Cl)cccc2Cl)nc2c(Nc3ccncc3)ncnc21 [Example 215, 8-(2,6-dichlorophenyl)-9-methyl-N-(pyridin-4-yl)-9H-purin-6-amine] | 7.25
O=C(Nc1ncnc2c1nc(-c1c(Cl)cccc1Cl)n2CCO)C1CC1 [Example 439, Cyclopropanecarboxylic acid [8-(2,6-dichloro-phenyl)-9-(2-hydroxy-ethyl)-9H-purin-6-yl]-amide] | 6.08
O=C(Nc1ncc(Cl)c2[nH]c(-c3c(Cl)cccc3Cl)nc12)C1CC1 [Example 447, Cyclopropanecarboxylic acid [7-chloro-2-(2,6-dichloro-phenyl)-1H-imidazo[4,5-c]pyridin-4-yl]-amide] | 9.10
